ChEMBL document CHEMBL5329159, “Anti-proliferative activity of nitroquinolone fused acylhydrazones as non-small cell human lung cancer agents” (RSC Med Chem, 2023)
pIC50: −log10 of the molar value. Calls of active or inactive are those of the source. The calls are words filed in the database; no cut-off is given here.

Columns and labels:
MCF7 = experiment: Cytotoxicity against human MCF7 cells assessed as reduction in cell viability incubated for 72 hrs by MTT assay; format: functional, cell-based; conditions: MCF7, 72 h
HeLa = experiment: Cytotoxicity against human HeLa cells assessed as reduction in cell viability incubated for 72 hrs by MTT assay; format: functional, cell-based
A549 [1] = experiment: Cytotoxicity against human A549 cells assessed as reduction in cell viability incubated for 72 hrs by MTT assay; format: functional, cell-based; conditions: A549, 72 h
[2] = Cytotoxicity against HEK cells assessed as reduction in cell viability upto 200 uM incubated for 72 hrs by MTT assay; format: toxicity, cell-based; conditions: human
A549 [3] = experiment: Induction of morphological changes in human A549 cells assessed as cell shrinkage by inverted light microscopic analysis; format: functional, cell-based
A549 [4] = experiment: Induction of nuclear fragmentation in human A549 cells incubated for 24 hrs by DAPI staining based fluorescence microscopic analysis; format: functional, cell-based
A549 [5] = experiment: Induction of cell cycle arrest in human A549 cells assessed as accumulation of cells at S phase after 24 hrs by PI/RNase staining based flow cytometry analysis; format: functional
A549 [6] = experiment: Induction of apoptosis in human A549 cells by AO/EtBr staining based fluorescence microscopic analysis; format: functional, cell-based
A549 [7] = experiment: Induction of morphological changes in human A549 cells assessed as membrane blebbing by inverted light microscopic analysis; format: functional, cell-based
[8] = Induction of morphological changes in HEK cells assessed as cell detachment incubated for 24 hrs by inverted light microscopic analysis; format: toxicity, cell-based; conditions: human
A549 [9] = experiment: Induction of morphological changes in human A549 cells assessed as formation of floating cells by inverted light microscopic analysis; format: functional, cell-based
[10] = Induction of morphological changes in HEK cells assessed as cell blebbing incubated for 24 hrs by inverted light microscopic analysis; format: toxicity, cell-based; conditions: human
A549 [11] = experiment: Induction of chromatin condensation in human A549 cells incubated for 24 hrs by DAPI staining based fluorescence microscopic analysis; format: functional, cell-based
A549 [12] = experiment: Induction of cell cycle arrest in human A549 cells assessed as accumulation of cells at G2/M phase after 24 hrs by PI/RNase staining based flow cytometry analysis; format: functional
A549 [13] = experiment: Induction of cell cycle arrest in human A549 cells assessed as accumulation of cells at G0/G1 phase after 24 hrs by PI/RNase staining based flow cytometry analysis; format: functional

Compound O=C(N/N=C1\CCNc2c1cc(Cl)cc2[N+](=O)[O-])c1ccco1 has a pIC50 (MCF7) of 4.59, a pIC50 (HeLa) of 4.49 and a pIC50 (A549 [1]) of 4.61. For the same compound, the Activity [2] was “Non-Toxic”.

O=C(N/N=C1\CCNc2c1cccc2[N+](=O)[O-])c1ccco1 gave a pIC50 (MCF7) of 4.65, a pIC50 (HeLa) of 4.52 and a pIC50 (A549 [1]) of 4.74. The Activity [2] was “Non-Toxic”.

With COc1cccc2c1C(=O)c1c(O)c3c(c(O)c1C2=O)C[C@@](O)(C(=O)CO)C[C@@H]3O[C@H]1C[C@H](N)[C@H](O)[C@H](C)O1 [DOXORUBICIN] the pIC50 (MCF7) was 4.94, the pIC50 (HeLa) was 4.87 and the Activity [2] was “Non-Toxic”.

In the case of O=C(N/N=C1\CCNc2c1cc(Cl)cc2[N+](=O)[O-])c1ccccc1O, the pIC50 (MCF7) was 4.74, the Activity (A549 [3]) was “Dose-Dependent Effect” and the Activity (A549 [4]) was “Active”. The Activity (A549 [5]) was “Active”, the Activity (A549 [6]) was “Active” and the Activity (A549 [7]) was “Dose-Dependent Effect”. For the same compound, the Activity [8] was “Non-Toxic”, the Activity (A549 [9]) was “Dose-Dependent Effect” and the Activity [10] was “Non-Toxic”. The Activity (A549 [11]) was “Active”, the Activity (A549 [12]) was “Active” and the pIC50 (HeLa) was 4.67. For the same compound, the pIC50 (A549 [1]) was 4.82, the Activity (A549 [13]) was “Active” and the Activity [2] was “Non-Toxic”.

With O=C(N/N=C1\CCNc2c1cccc2[N+](=O)[O-])c1cccs1 the pIC50 (MCF7) was 4.64, the pIC50 (HeLa) was 4.53 and the pIC50 (A549 [1]) was 4.58. For the same compound, the Activity [2] was “Non-Toxic”.

For O=C(N/N=C1\CCNc2c1cc(Cl)cc2[N+](=O)[O-])c1cccs1, the pIC50 (MCF7) was 4.72, the Activity (A549 [3]) was “Dose-Dependent Effect” and the Activity (A549 [4]) was “Active”. For the same compound, the Activity (A549 [5]) was “Active”, the Activity (A549 [6]) was “Active” and the Activity (A549 [7]) was “Dose-Dependent Effect”. The Activity [8] was “Non-Toxic”, the Activity (A549 [9]) was “Dose-Dependent Effect” and the Activity [10] was “Non-Toxic”. For the same compound, the Activity (A549 [11]) was “Active”, the Activity (A549 [12]) was “Active” and the pIC50 (HeLa) was 4.70. The pIC50 (A549 [1]) was 4.77, the Activity (A549 [13]) was “Active” and the Activity [2] was “Non-Toxic”.

In the case of O=C(N/N=C1\CCNc2c1cccc2[N+](=O)[O-])c1cccnc1, the pIC50 (MCF7) was 4.63, the pIC50 (HeLa) was 4.53 and the pIC50 (A549 [1]) was 4.67. For the same compound, the Activity [2] was “Non-Toxic”.

With O=C(N/N=C1\CCNc2c1cccc2[N+](=O)[O-])c1ccccc1O the pIC50 (MCF7) was 4.69, the pIC50 (HeLa) was 4.61 and the pIC50 (A549 [1]) was 4.80. For the same compound, the Activity [2] was “Non-Toxic”.

With O=C(N/N=C1\CCNc2c1cc(Cl)cc2[N+](=O)[O-])c1cccnc1 the pIC50 (MCF7) was 4.69, the pIC50 (HeLa) was 4.57 and the pIC50 (A549 [1]) was 4.64. For the same compound, the Activity [2] was “Non-Toxic”.
